Assay: Emulsifying properties: hexane/water emulsions
Type: physicochemical
Settings: for emulsifying properties on addition of salt: addition of 0.2% calcium chloride or magnesium chloride, mixture of isomers; for stability of emulsions of water in hexane: aqueous solutions of the mixture of isomers
Description: […] The emulsifying properties of compounds (12a) and (12b) were not disrupted by the addition of 0.2% calcium chloride or magnesium chloride.

SMILES	emulsifying properties on addition of salt	stability of emulsions of water in hexane
CCCCCCCCC(O)COCC(O)CO (stereo not drawn) [Compound 12a]	not disrupted	
CCCCCCCCC(CO)OCC(O)CO (stereo not drawn) [Compound 12b]	not disrupted	
CCCCCCCCCCCCCCCCC(O)COCC(O)CO (stereo not drawn) [Compound 13a]	not substantially disrupted	able to support stability of emulsions of water in hexane
CCCCCCCCCCCCCCCCC(CO)OCC(O)CO (stereo not drawn) [Compound 13b]	not substantially disrupted	able to support stability of emulsions of water in hexane

From US8026378B2, “Glyceryl ether compounds and their use” (Segetis, Inc., priority 2005, dated 2011)
